PubChem BioAssay AID1259407 (Chemical Carcinogenesis Research Information System (CCRIS), 2018)
Activity calls are given as the source filed them. The rule behind the calls is not given here.

Tested on: CCRIS mutagenicity, Ames/micronucleus/aberration tests
Test: CCRIS mutagenicity studies

Measured: mutagenic call

CC(=O)Oc1ccccc1C(=O)O
inactive: Test System: AMES SALMONELLA TYPHIMURIUM, Strain/Indicator: TA100, Metabolic Activation: RAT, LIVER, S-9, AROCLOR 1254 (30%), Method: PREINCUBATION inactive; negative | Test System: AMES SALMONELLA TYPHIMURIUM, Strain/Indicator: TA100, Metabolic Activation: RAT, LIVER, S-9, AROCLOR 1254, Method: STANDARD PLATE inactive; negative | Test System: AMES SALMONELLA TYPHIMURIUM, Strain/Indicator: TA100, Metabolic Activation: RAT, LIVER, S-9, PCB, Method: PREINCUBATION inactive; negative | Test System: AMES SALMONELLA TYPHIMURIUM, Strain/Indicator: TA100, Metabolic Activation: RAT, LIVER, S-9, PCB, Method: STANDARD PLATE inactive; negative | Test System: AMES SALMONELLA TYPHIMURIUM, Strain/Indicator: TA1535, Metabolic Activation: HAMSTER, LIVER, S-9, AROCLOR 1254 (10%), Method: PREINCUBATION inactive; negative | Test System: AMES SALMONELLA TYPHIMURIUM, Strain/Indicator: TA1535, Metabolic Activation: HAMSTER, LIVER, S-9, AROCLOR 1254 (30%), Method: PREINCUBATION inactive; negative | Test System: AMES SALMONELLA TYPHIMURIUM, Strain/Indicator: TA1535, Metabolic Activation: HAMSTER, LIVER, S-9, AROCLOR 1254, Method: STANDARD PLATE inactive; negative | Test System: AMES SALMONELLA TYPHIMURIUM, Strain/Indicator: TA1535, Metabolic Activation: MOUSE, LIVER, S-9, AROCLOR 1254, Method: STANDARD PLATE inactive; negative | Test System: AMES SALMONELLA TYPHIMURIUM, Strain/Indicator: TA1535, Metabolic Activation: NONE, Method: PREINCUBATION inactive; negative | Test System: AMES SALMONELLA TYPHIMURIUM, Strain/Indicator: TA1535, Metabolic Activation: NONE, Method: STANDARD PLATE inactive; negative | Test System: AMES SALMONELLA TYPHIMURIUM, Strain/Indicator: TA1535, Metabolic Activation: RAT, LIVER, S-9, AROCLOR 1254 (10%), Method: PREINCUBATION inactive; negative | Test System: AMES SALMONELLA TYPHIMURIUM, Strain/Indicator: TA1535, Metabolic Activation: RAT, LIVER, S-9, AROCLOR 1254 (30%), Method: PREINCUBATION inactive; negative | Test System: AMES SALMONELLA TYPHIMURIUM, Strain/Indicator: TA1535, Metabolic Activation: RAT, LIVER, S-9, AROCLOR 1254, Method: STANDARD PLATE inactive; negative | Test System: AMES SALMONELLA TYPHIMURIUM, Strain/Indicator: TA1537, Metabolic Activation: HAMSTER, LIVER, S-9, AROCLOR 1254, Method: STANDARD PLATE inactive; negative | Test System: AMES SALMONELLA TYPHIMURIUM, Strain/Indicator: TA1537, Metabolic Activation: MOUSE, LIVER, S-9, AROCLOR 1254, Method: STANDARD PLATE inactive; negative | Test System: AMES SALMONELLA TYPHIMURIUM, Strain/Indicator: TA1537, Metabolic Activation: NONE, Method: STANDARD PLATE inactive; negative | Test System: AMES SALMONELLA TYPHIMURIUM, Strain/Indicator: TA1537, Metabolic Activation: RAT, LIVER, S-9, AROCLOR 1254, Method: STANDARD PLATE inactive; negative | Test System: AMES SALMONELLA TYPHIMURIUM, Strain/Indicator: TA1537, Metabolic Activation: RAT, LIVER, S-9, PCB, Method: STANDARD PLATE inactive; negative | Test System: AMES SALMONELLA TYPHIMURIUM, Strain/Indicator: TA1538, Metabolic Activation: HAMSTER, LIVER, S-9, AROCLOR 1254, Method: STANDARD PLATE inactive; negative | Test System: AMES SALMONELLA TYPHIMURIUM, Strain/Indicator: TA1538, Metabolic Activation: MOUSE, LIVER, S-9, AROCLOR 1254, Method: STANDARD PLATE inactive; negative | Test System: AMES SALMONELLA TYPHIMURIUM, Strain/Indicator: TA1538, Metabolic Activation: NONE, Method: STANDARD PLATE inactive; negative | Test System: AMES SALMONELLA TYPHIMURIUM, Strain/Indicator: TA1538, Metabolic Activation: RAT, LIVER, S-9, AROCLOR 1254, Method: STANDARD PLATE inactive; negative | Test System: AMES SALMONELLA TYPHIMURIUM, Strain/Indicator: TA1538, Metabolic Activation: RAT, LIVER, S-9, PCB, Method: STANDARD PLATE inactive; negative | Test System: E. COLI, Strain/Indicator: WP2 UVRA, Metabolic Activation: HAMSTER, LIVER, S-9, AROCLOR 1254, Method: STANDARD PLATE inactive; negative | Test System: E. COLI, Strain/Indicator: WP2 UVRA, Metabolic Activation: HAMSTER, LIVER, S-9, Method: STANDARD PLATE inactive; negative | Test System: E. COLI, Strain/Indicator: WP2 UVRA, Metabolic Activation: MOUSE, LIVER, S-9, AROCLOR 1254, Method: STANDARD PLATE inactive; negative | Test System: E. COLI, Strain/Indicator: WP2 UVRA, Metabolic Activation: MOUSE, LIVER, S-9, Method: STANDARD PLATE inactive; negative | Test System: E. COLI, Strain/Indicator: WP2 UVRA, Metabolic Activation: NONE, Method: STANDARD PLATE inactive; negative | Test System: E. COLI, Strain/Indicator: WP2 UVRA, Metabolic Activation: RAT, LIVER, S-9, AROCLOR 1254, Method: STANDARD PLATE inactive; negative | Test System: E. COLI, Strain/Indicator: WP2 UVRA, Metabolic Activation: RAT, LIVER, S-9, PCB, Method: STANDARD PLATE inactive; negative | Test System: E. COLI, Strain/Indicator: WP2 UVRA, Metabolic Activation: RAT, LIVER, S-9, Method: STANDARD PLATE inactive; negative
